Values quoted from earlier work as cited in patent US10189872B2, “Crystalline form of nicotinamide riboside” (W. R. Grace & Co.-Conn., priority 2015, dated 2019).

Details: mice on a high-fat diet supplemented with nicotinamide riboside; 2012 study

Compound: NC(=O)c1ccc[n+]([C@@H]2O[C@H](CO)[C@@H](O)[C@H]2O)c1 [nicotinamide riboside, Nicotinamide riboside]
- less weight gained than mice eating the same high-fat diet without nicotinamide riboside: 60%
